# In patent US20030017186A1, “Carboxylic acid fluorides as pesticides” (priority 1999, published 2003):
# Assays:
# [1] = tested on: Saw-toothed grain beetle (Oryzaephilus surinamensis); assay: Fumigation test in glass vessel, saw-toothed grain beetles; type: in vivo; details: ORYZSA beetles
# [2] = tested on: House longhorn beetle (Hylotrupes bajulus) larvae; assay: Fumigation test in glass vessel, house longhorn beetle larvae in wood blocks; type: in vivo; details: HYLOBA larvae in wood blocks
# termites = assay: Termite control fumigation test (overall statements); type: in vivo, Cryptotermes brevis, Incisitermes tabogae; details: Example 6
# Description: (§1) c) American drywood termites (Cryptotermes brevis)=CRYPBR, and Incisitermes tabogae=INCITA
# (§2) The test organisms, separated by species, were placed into a glass vessel measuring 30 cm×30 cm×60 cm, which was sealed with a glass lid so as to be airtight. The adults and the larvae of the mealworm beetle (Tenebrio molitor) and the broad-horned flour beetle (Gnathocerus cornutus) were placed into small glass vessels approximately 5 cm in diameter, which were closed with a gauze lid and in which they could freely move about. The larvae of the rice weevil had burrowed into seeds of grain. The wood pest larvae were inserted into small blocks of wood measuring 5 cm×2.5 cm×2 cm. The openings were sealed with wads of cotton wool. Only one each of the larvae of the house longhorn beetle (Hylotrupes bajulus) was inserted into a piece of wood, while 6-8 larvae of the common furniture beetle (Anobium punctatum) were inserted into each piece of wood.
# (§3) The respective gas was then introduced into the fumigation vessel through a gas line from a gas tank that contained the specified amount of gas. After a defined time period, the fumigation vessel was purged with compressed air. The discharged gas was purified by an attached gas scrubber.
# (§4) The beetles were observed until they died. This point was recorded for each species. The larvae of the wood pests as well as the larvae of the rice weevil (Sitophilus oryzae) had to be picked out of the wood or the grain to check their condition. If any of the animals were still alive, the wooden test blocks remaining in the vessel were fumigated again and were reexamined after the corresponding time span had elapsed. The same number of animals in the untreated control was also checked at each point.
# The vitality of the animals was checked at certain time intervals. The beetles could be observed through the fumigation vessel. This was also true for the larvae of the mealworm beetle and the broad-horned flour beetle. […] The exact time intervals and the number of the evaluated pests were documented in the test results.
# [3] = tested on: Rice weevil (Sitophilus oryzae); assay: Fumigation test in glass vessel, rice weevils; type: in vivo; details: SITTOR beetles
# [4] = tested on: Mealworm beetle (Tenebrio molitor); assay: Fumigation test in glass vessel, mealworm beetles; type: in vivo; details: TENEMO beetles
# [5] = tested on: wood pests (house longhorn beetle, common furniture beetle); assay: Fumigation test, wood pests; type: in vivo, Hylotrupes bajulus, Anobium punctatum
# Description: as §2, §3, §4
# (§5) The vitality of the animals was checked at certain time intervals. The beetles could be observed through the fumigation vessel. This was also true for the larvae of the mealworm beetle and the broad-horned flour beetle. The wooden test blocks of the wood pest larvae were opened with hammer and chisel. Tweezers were used to pull the rice weevil larvae out of the grain seeds. The exact time intervals and the number of the evaluated pests were documented in the test results.
# Incisitermes tabogae = assay: Termite control fumigation test, Incisitermes tabogae; type: in vivo; details: Example 6
# Description: as §1, §2, §3, §4, §5
# [6] = tested on: Common furniture beetle (Anobium punctatum); assay: Fumigation test in glass vessel, common furniture beetles; type: in vivo; details: ANOBPU beetles; Example 5; ACF 50.6/48.2/51.4 g/m^3, SF 47.4/44.6/41 g/m^3 (1st/2nd/3rd fumigation); 23/23/22° C.
# Description: b2) Common furniture beetle (Anobium punctatum)=[…]
# as §2, §3, §4, §5
# [7] = tested on: Broad-horned flour beetle (Gnathocerus cornutus); assay: Fumigation test in glass vessel, broad-horned flour beetles; type: in vivo; details: GNATCO beetles
# [8] = tested on: Mealworm beetle (Tenebrio molitor) larvae; assay: Fumigation test in glass vessel, mealworm beetle larvae; type: in vivo; details: TENEMO larvae
# [9] = tested on: Rice weevil (Sitophilus oryzae) larvae; assay: Fumigation test in glass vessel, rice weevil larvae in grain seeds; type: in vivo; details: SITTOR larvae in grain seeds
# Description: a2) Rice weevil (Sitophilus oryzae)=SITTOR
# as §2, §3, §4, §5
# [10] = Example 4, gas 36.5 g/m^3, 19.3° C., 54% rel. air humidity
# [11] = Example 5, ACF 50.6/48.2/51.4 g/m^3, SF 47.4/44.6/41 g/m^3 (1st/2nd/3rd fumigation), 23/23/22° C.
# [12] = Example 7, ACF 53.0/54.6/0 g/m^3, second gas (SF) 43.6/41.4/39.8 g/m^3 (1st/2nd/3rd fumigation), 20.0/20.2/19.8 C.
# [13] = INCITA termites, ACF 50.0/53.8 g/m^3, SF 47.8/44.8 g/m^3 (1st/2nd fumigation), 23.7/24° C.
smiles,measurement,setting,value
"CC(=O)F [ACF, acetyl fluoride]","Number alive, 1 hr. after Start of Fumigation",[1]; [10],0
same,"Number dead, 1 hr. after Start of Fumigation",[1]; [10],25
same,"Number alive, 30 min. after Start of Fumigation",[1]; [11],0
same,"Number dead, 30 min. after Start of Fumigation",[1]; [11],15
same,"Number alive, 30 min. after 1st Fumigation",[1]; [12],0
same,"Number dead, 30 min. after 1st Fumigation",[1]; [12],15
same,"Number alive, 1 hr. after Start of Fumigation",[2]; [11],0
same,"Number alive, 3 hrs. after Start of Fumigation",[2]; [11],1
same,"Number alive, 6 hrs after Start of Fumigation",[2]; [11],0
same,"Number dead, 1 hr. after Start of Fumigation",[2]; [11],4
same,"Number dead, 3 hrs. after Start of Fumigation",[2]; [11],2
same,"Number dead, 6 hrs after Start of Fumigation",[2]; [11],7
same,"Number alive, 1 hr. after 1st Fumigation",[2]; [12],2
same,"Number alive, 3 hrs. after 1st Fumigation",[2]; [12],0
same,"Number dead, 1 hr. after 1st Fumigation",[2]; [12],3
same,"Number dead, 3 hrs. after 1st Fumigation",[2]; [12],10
same,Effectiveness against termites in comparison test,termites; compared with SO2F2,as effective as SO2F2
same,Speed of effect on termites in wood,"termites; compared with sulfuryl fluoride, penetrates wood more quickly",slightly faster effect
same,"Number alive, 1 hr. after Start of Fumigation",[3]; [10],0
same,"Number dead, 1 hr. after Start of Fumigation",[3]; [10],25
same,"Number alive, 30 min. after Start of Fumigation",[3]; [11],0
same,"Number dead, 30 min. after Start of Fumigation",[3]; [11],15
same,"Number alive, 30 min. after 1st Fumigation",[3]; [12],0
same,"Number dead, 30 min. after 1st Fumigation",[3]; [12],15
same,"Number alive, 1 hr. after Start of Fumigation",[4]; [10],0
same,"Number dead, 1 hr. after Start of Fumigation",[4]; [10],10
same,"Number alive, 30 min. after Start of Fumigation",[4]; [11],0
same,"Number dead, 30 min. after Start of Fumigation",[4]; [11],10
same,"Number alive, 30 min. after 1st Fumigation",[4]; [12],0
same,"Number dead, 30 min. after 1st Fumigation",[4]; [12],10
same,Effectiveness against wood pests,"[5]; Conclusion, especially at temperatures in excess of 20° C.",very effective
same,Condition of the larvae of the wood pests after 24 hours,"[5]; Example 4, house longhorn beetle larvae and 2 common furniture beetle larvae, gas 36.5 g/m^3, 19.3° C., evaluated only after 24 hours",dead
same,Number of Incisitermes still alive on reexamination after 24-hour observation period,"Incisitermes tabogae; out of 30 animals fumigated 1 hour, then 24-hour observation",3
same,"Number alive, 30 min. after 1st Fumigation",Incisitermes tabogae; [13],90
same,"Number alive, 1 hr. after 1st Fumigation",Incisitermes tabogae; [13],30
same,"Number alive, 3 hrs. after 1st Fumigation",Incisitermes tabogae; [13],0
same,"Number dead, 30 min. after 1st Fumigation",Incisitermes tabogae; [13],0
same,"Number dead, 1 hr. after 1st Fumigation",Incisitermes tabogae; [13],0
same,"Number dead, 3 hrs. after 1st Fumigation",Incisitermes tabogae; [13],60
same,"Number alive, 30 min. after Start of Fumigation",[6],0
same,"Number dead, 30 min. after Start of Fumigation",[6],6
same,"Number alive, 1 hr. after Start of Fumigation",[7]; [10],13
same,"Number alive, 2 hrs. after Start of Fumigation",[7]; [10],3
same,"Number alive, 12 hrs. after Start of Fumigation",[7]; [10],0
same,"Number dead, 1 hr. after Start of Fumigation",[7]; [10],12
same,"Number dead, 2 hrs. after Start of Fumigation",[7]; [10],22
same,"Number dead, 12 hrs. after Start of Fumigation",[7]; [10],25
same,"Number alive, 30 min. after Start of Fumigation",[7]; [11],0
same,"Number dead, 30 min. after Start of Fumigation",[7]; [11],15
same,"Number alive, 30 min. after 1st Fumigation",[7]; [12],0
same,"Number dead, 30 min. after 1st Fumigation",[7]; [12],15
same,"Number alive, 1 hr. after Start of Fumigation",[8]; [10],5
same,"Number alive, 2 hrs. after Start of Fumigation",[8]; [10],0
same,"Number dead, 1 hr. after Start of Fumigation",[8]; [10],5
same,"Number dead, 2 hrs. after Start of Fumigation",[8]; [10],10
same,"Number alive, 30 min. after Start of Fumigation",[8]; [11],0
same,"Number dead, 30 min. after Start of Fumigation",[8]; [11],10
same,"Number alive, 30 min. after 1st Fumigation",[8]; [12],5
same,"Number alive, 1 hr. after 1st Fumigation",[8]; [12],0
same,"Number dead, 30 min. after 1st Fumigation",[8]; [12],5
same,"Number dead, 1 hr. after 1st Fumigation",[8]; [12],10
same,"Number alive, 24 hrs. after Start of Fumigation",[9]; [10],0
same,"Number dead, 24 hrs. after Start of Fumigation",[9]; [10],25
same,"Number alive, 1 hr. after Start of Fumigation",[9]; [11],0
same,"Number dead, 1 hr. after Start of Fumigation",[9]; [11],15
